Data taken from paper PMC10420963, “Exploring Novel Drug Combinations: The Therapeutic Potential of Selanyl Derivatives for Leishmania Treatment” (Molecules, 2023).
Read-outs that look alike come from different tables or passages of the source.

Experiments:
[1] = tested on: L. infantum promastigotes; assay: Leishmanicidal activity against L. infantum promastigotes (MTT assay); type: cell-based, Leishmania infantum
Protocol: (§1) Promastigotes. L. major (clone VI, MHOM/IL/80) and L. infantum (clone, BCN-150) parasites were cultured at 26 °C under continuous shaking in M199 1× medium (Sigma, St. Louis, MO, USA) supplemented with heat-inactivated fetal bovine serum (FBS), 25 mM HEPES (pH 7), 0.1 mM adenine, 0.0005% (w/v) haemin, […], 0.0005% (w/v) biotin, 100 IU/mL penicillin and […]. For each experiment, the culture medium was changed everyday in order to achieve parasite in exponential growth phase.
(§2) In order to determine the leishmanicidal activity of the compounds obtained in this study, promastigotes of L. major and L. infantum strains were seeded in 96-well plates (3 ×·10^6 parasite/mL) in exponential growth phase at increasing concentrations (1–500 μM) of the compounds and maintained at 26 °C. After 48 h of incubation, the IC50 was determined by MTT assay. The absorbance was measured in a MultiskanEX photometric plate reader for microplates at 540 nm. Data were obtained from three independent experiments performed in triplicate.

[2] = tested on: L. major promastigotes; assay: Leishmanicidal activity against L. major promastigotes (MTT assay); type: cell-based, Leishmania major; conditions: for IC50: Leishmania major, L. major promastigotes, 48 h incubation, MTT
Protocol: as §1, §2

[3] = Cytotoxicity in PMA-differentiated THP-1 macrophages (MTT assay); type: cell-based; conditions: human, pH 7.2, 48 h of treatment, read-out: THP-1 Cells CC50
Protocol: Human monocytic leukemia cell line THP-1 cells were cultured in RMPI 1640 medium (Gibco, Leiden, The Netherlands) supplemented with 10% heat-inactivated FBS, 5% penicillin/streptomycin, 1 mM HEPES, 2 mM glutamine at pH 7.2 at 36 °C and 5% CO2.
THP-1 cells were seeded at a concentration of 8 × 10^5 cells/mL in 96-well plates and incubated for 24 h with phorbol 12-myristate 13-acetate (PMA) (10 ng/mL) supplemented RPMI 1640 (Gibco, Leiden, The Netherlands). After 24 h, the culture medium was removed, and the cells were treated with the synthesized compounds at different concentrations ranging from 1–500 μM at 37 °C and 5% CO2. After this time, the MTT assay was performed. The cytotoxic concentration values (CC50) were obtained by fitting the data to a sigmoid dose-inhibition curve using GraphPad Prism 7.0 software (GraphPad Software Inc., San Diego, CA, USA). MIL and PMN were used as reference drugs for comparison.

[4] = tested on: L. infantum promastigotes; assay: Drug combination (FICI) assay on L. infantum promastigotes; type: cell-based, Leishmania infantum; conditions: for ƩFICI50: 48 h; for ƩFICI: combined with the reference drugs AMB, MIL, and PMN (bound for all three)
Protocol: To determine the nature of the interaction, it is crucial to choose the appropriate doses. Thus, the evaluation of the combination was carried out by a dose–response linear dilution experiment, for which the IC50 value of each substance alone was determined and multiplied by 0.2×, 0.4×, 0.6×, 0.8×, 1×, 1.2×, 1.4×, 1.6×, 1.8×, and 2× times, in order to obtain the different dilutions. […] Compound A6 stood out in this experiment, with synergistic interactions in combination with MIL (ƩFICI = 0.44), borderline synergistic interaction combined with PMN (ƩFICI = 0.54), but without interaction when combined with AMB (ƩFICI = 0.70).
The fractional inhibitory concentration index (FICI) was used to describe the interaction between the lead compounds A4–A6 and A8 with AmB, PMN and MIL. The compounds were studied in vitro against L. infantum promastigotes after 48 h of treatment. For this purpose, different increasing concentration ratios (0.2×, 0.4×, 0.6×, 0.8×, 1×, 1.2×, 1.4×, 1.6×, 1.8× and 2× times the IC50 of the compounds) were established. Finally, synergy was defined as FICI < 0.5, non-interaction as 0.5 < FICI < 4, and antagonism as FICI > 4. FICI values were obtained from four independent experiments.

[5] = Leishmania infantum, 48 h, L. infantum promastigotes, 48 h incubation, MTT, compound alone, read-out: IC50

SMILES	IC50 [1, 5] [µM]	IC50 [2] [µM]	CC50 at 48 h [3] [µM]	Effect ([4]; combination with AmB)	ƩFICI50 ([4]; combination with AmB)	Effect ([4]; combination with MIL)	ƩFICI50 ([4]; combination with MIL)	Effect ([4]; combination with PMN)	ƩFICI50 ([4]; combination with PMN)	further results
O=C(O)CSC(=O)C1CC1 [B5, 2-((cyclopropanecarbonyl)thio)acetic acid]	87.6	–	–	–	–	–	–	–	–	–
CCCCCCC(=O)SCC(=O)OC [D4, Methyl 2-(heptanoylthio)acetate]	79.2	87.3	–	–	–	–	–	–	–	–
COC(=O)CSC(=O)C1CC1 [D5, Methyl 2-((cyclopropanecarbonyl)thio)acetate]	68.7	81.8	–	–	–	–	–	–	–	–
O=C(O)C[Se]C(=O)C1CCCCC1 [A8, 2-((cyclohexanecarbonyl)selanyl)acetic acid]	< 40	–	147 ± 12.5	Non interaction (non-interaction as 0.5 < FICI < 4)	0.52	Synergy (synergy was defined as FICI < 0.5)	0.40	Non interaction (non-interaction as 0.5 < FICI < 4)	0.52	IC50 ([1]; L. infantum promastigotes, 48 h incubation, MTT, compound alone, read-out: IC50): 39.9 µM
CCCCCCC(=O)[Se]CC(=O)O [A4, 2-(heptanoylselanyl)acetic acid]	< 40	–	173 ± 8.6	Non interaction (non-interaction as 0.5 < FICI < 4)	0.71	Non interaction (non-interaction as 0.5 < FICI < 4)	0.68	Non interaction (non-interaction as 0.5 < FICI < 4)	0.68	ƩFICI [4]: > 0.60
CCCCCCCCCCCCCCCCOP(=O)([O-])OCC[N+](C)(C)C [MIL, miltefosine, reference compound]	31.9	–	13.3 ± 2.8	–	–	–	–	–	–	–
COC(=O)CSC(=O)C1CCC1 [D6, Methyl 2-((cyclobutanecarbonyl)thio)acetate]	95.3	83.4	–	–	–	–	–	–	–	–
O=C(O)C[Se]C(=O)C1CC1 [A5, 2-((cyclopropanecarbonyl)selanyl)acetic acid]	< 40	113	211 ± 9.3	Non interaction (non-interaction as 0.5 < FICI < 4)	0.70	Non interaction (non-interaction as 0.5 < FICI < 4)	0.98	Non interaction (non-interaction as 0.5 < FICI < 4)	0.61	ƩFICI [4]: > 0.60
CCCCCCC(=O)[Se]CC(=O)OC [C4, Methyl 2-(heptanoylselanyl)acetate]	–	–	–	–	–	–	–	–	–	IC50 ([1]; Leishmania infantum, 48 h): 116 µM
O=C(O)C[Se]C(=O)C1CCC1 [A6, 2-((cyclobutanecarbonyl)selanyl)acetic acid]	–	–	178 ± 10.2	Non interaction (non-interaction as 0.5 < FICI < 4)	0.70	Synergy (synergy was defined as FICI < 0.5)	0.44	Non interaction (non-interaction as 0.5 < FICI < 4)	0.54	times more selective than MIL ([2]; L. major, from SI values): 15; times more selective than PMN ([2]; L. major, from SI values): 5; fold more selective than MIL ([1]; L. infantum, from SI values): 28 fold; fold more selective than PMN ([1]; L. infantum, from SI values): 5 fold
NC[C@@H]1O[C@H](O[C@H]2[C@@H](O)[C@H](O[C@@H]3[C@@H](O)[C@H](N)C[C@H](N)[C@H]3O[C@H]3O[C@H](CO)[C@@H](O)[C@H](O)[C@H]3N)O[C@@H]2CO)[C@H](N)[C@@H](O)[C@@H]1O [PMN, paromomycin, reference compound]	–	–	39 ± 13.7	–	–	–	–	–	–	–
